The results in this text go back to US6984645B2, “Dual inhibitors of adipocyte fatty acid binding protein and keratinocyte fatty acid binding protein” (Bristol-Myers Squibb Company, priority 2001, dated 2006).

Counter-ions that a name gives are not always drawn.

Consider `O=C(O)c1cccc(OCc2ccccc2Cl)c1OCc1ccc[n+]([O-])c1`, for which the melting point lay in the range of 177 to 179 °C.

As to `O=C(O)c1cccc(OCc2ccccc2Cl)c1OCc1nc2ccccc2[nH]1` (as salt: hydrochloride) [Example 371, 2-(1H-Benzimidazol-2-ylmethoxy)-3-[(2-chlorophenyl)methoxyl]benzoic acid, monohydrochloride], the melting point was 197 to 201 °C.

`CO/N=C(/C(=O)O)c1cccc(OCc2ccccc2Cl)c1OCc1ccccc1Cl` (single isomer, unassigned) [Example 340, (E or Z)-2,3-Bis[(2-chlorophenyl)methoxy]-α-(methoxyimino)benzeneacetic acid]: the melting point fell in the range of 140 to 141 °C.

The compound `CO/N=C(/C(=O)O)c1cccc(OCc2ccccc2Cl)c1OCc1ccccc1Cl` (single isomer, unassigned) [Example 341, (E or Z)-2,3-Bis[(2-chlorophenyl)methoxy]-α-(methoxyimino)benzeneacetic acid] had a melting point of 97 to 99 °C.

As to `O=C(O)/C=C/c1cccc(OCc2ccccc2Cl)c1OCc1ccccc1Cl` [Example 4, 2-(E)-3-[2,3-Bis[(2-chlorophenyl)methoxy]phenyl]-2-propenoic acid], the melting point fell in the range of 187 to 189 °C.

Regarding `O=C(O)Cc1cccc(OCc2ccccc2Cl)c1OCc1ccccc1Cl` [Example 5, 2,3-Bis[(2-chlorophenyl)methoxy]benzeneacetic acid], the melting point was in the range of 105 to 107 °C.

Take `O=C(O)C(Cc1cccc(OCc2ccccc2Cl)c1OCc1ccccc1Cl)C(=O)O` [Example 7, [[2,3-Bis[(2-chlorophenyl)methoxy]phenyl]methyl]propanedioic acid]: the melting point was 148 to 150 °C (dec.).

In turn, `O=C(O)c1cccc(COc2ccccc2Cl)c1COc1ccccc1Cl` [Example 9, 2,3-Bis[(2-chlorophenoxy)methyl]benzoic acid] registered a melting point of 172 to 174 °C.

With `O=C(O)c1cccc(COc2ccccc2Cl)c1OCc1ccccc1Cl` [Example 10, 3-[(2-Chlorophenoxy)methyl]-2-[(2-chlorophenyl)methoxy]benzoic acid], the melting point was in the range of 172 to 174 °C.

`O=C(O)C(F)c1cccc(OCc2ccccc2Cl)c1OCc1ccccc1Cl` (stereo not drawn) [Example 24, 2,3-Bis[(2-chlorophenyl)methoxy]-α-fluorobenzeneacetic acid] displayed a melting point of 92 to 94 °C.

`O=C(O)C(=O)c1cccc(OCc2ccccc2Cl)c1OCc1ccccc1Cl` [Example 26, 2,3-Bis[(2-chlorophenyl)methoxy]-α-oxobenzeneacetic acid] gave a melting point of 116 to 118 °C.

In turn, `O=C(O)C(F)(F)c1cccc(OCc2ccccc2Cl)c1OCc1ccccc1Cl` [Example 27, 2,3-Bis[(2-chlorophenyl)methoxy]-α,α-difluorobenzeneacetic acid] had a melting point of 113 to 115 °C.

Take `O=C(O)C(O)c1cccc(OCc2ccccc2Cl)c1OCc1ccncc1` (stereo not drawn) [Example 344, 3-[(2-Chlorophenyl)methoxy]-α-hydroxy-2-(4-pyridinylmethoxy)benzeneacetic acid]: the melting point was 181 to 183 °C.

`O=C(O)c1cccc(OCc2cc(Cl)cc(Cl)c2)c1OCc1cc(Cl)cc(Cl)c1` [Example 345, 2,3-Bis[(3,5-dichlorophenyl)methoxy]benzoic acid] registered a melting point of 219 to 220 °C.

For `O=C(O)c1cccc(OCc2ccc(Cl)cc2Cl)c1OCc1ccc(Cl)cc1Cl` [Example 346, 2,3-Bis[(2,4-dichlorophenyl)methoxy]benzoic acid], the melting point is 168 to 169 °C.

`O=C(O)c1cccc(OCc2ccccc2Cl)c1OCc1ccccc1Cl` [Example 347, 2,3-Bis[(2-chlorophenyl)methoxy]benzoic acid]: the melting point lay in the range of 156 to 157 °C.

`O=C(O)c1cccc(OCc2cccc(Cl)c2)c1OCc1cccc(Cl)c1` [Example 348, 2,3-Bis[(3-chlorophenyl)methoxy]benzoic acid] returned a melting point of 126 to 127 °C.

Turning to `O=C(O)c1cccc(OCc2ccc(Cl)cc2)c1OCc1ccc(Cl)cc1` [Example 349, 2,3-Bis[(4-chlorophenyl)methoxy]benzoic acid], the melting point lay within 174 to 175 °C.

Regarding `O=C(O)c1cccc(OCc2cc(C(F)(F)F)cc(C(F)(F)F)c2)c1OCc1cc(C(F)(F)F)cc(C(F)(F)F)c1` [Example 350, 2,3-Bis[[3,5-bis(trifluoromethyl)phenyl]methoxy]benzoic acid], the melting point lay in the range of 156 to 158 °C.

The compound `Cc1ccc(C)c(COc2cccc(C(=O)O)c2OCc2cc(C)ccc2C)c1` [Example 351, 2,3-Bis[(2,5-dimethylphenyl)methoxy]benzoic acid] returned a melting point of 114 to 116 °C.

The compound `Cc1cc(C)cc(COc2cccc(C(=O)O)c2OCc2cc(C)cc(C)c2)c1` [Example 352] gave a melting point of 117 to 118 °C.

`O=C(O)c1cccc(OCc2ccccc2)c1OCc1ccc(Cl)cc1Cl` [Example 353, 2-[(2,4-Dichlorophenyl)methoxy]-3-(phenylmethoxy)benzoic acid] had a melting point of 140 to 142 °C.

`O=C(O)c1cccc(OCc2ccc(Cl)cc2Cl)c1OCc1ccccc1` [Example 354, 3-[(2,4-Dichlorophenyl)methoxy]-2-(phenylmethoxy)benzoic acid]: the melting point lay within 151 to 153 °C.

Compound `O=C(O)c1cc(Br)cc(OCc2ccccc2Cl)c1OCc1ccccc1Cl` [Example 355, 5-Bromo-2,3-bis[(2-chlorophenyl)methoxy]benzoic acid] yielded a melting point of 186 to 187 °C.

The compound `O=C(O)c1cc(Br)cc(OCc2ccccc2)c1OCc1ccccc1` [Example 356, 5-Bromo-2,3-bis(phenylmethoxy)benzoic acid] yielded a melting point of 151 to 153 °C.

With `Cc1cccc(COc2c(OCc3ccccc3Cl)cccc2C(=O)O)c1` [Example 357, 3-[(2-Chlorophenyl)methoxy]-2-[(3-methylphenyl)methoxy]benzoic acid], the melting point lay within 107 to 109 °C.

For the compound `O=C(O)c1cccc(OCc2ccccc2Cl)c1OCc1cccc(F)c1` [Example 358, 3-[(2-Chlorophenyl)methoxy]-2-[(3-fluorophenyl)methoxy]benzoic acid], the melting point lay within 152 to 154 °C.

`O=C(O)c1cccc(OCc2ccccc2Cl)c1OCc1cccc(C(F)(F)F)c1` [Example 359] returned a melting point of 128 to 129 °C.

In turn, `O=C(O)c1cccc(OCc2ccccc2Cl)c1OCc1ccc(OCc2ccccc2)cc1` [Example 360, 3-[(2-Chlorophenyl)methoxy]-2-[[4-(phenylmethoxy)phenyl]methoxy]benzoic acid] yielded a melting point of 107 to 109 °C.

Compound `Cc1cc(C)cc(COc2c(OCc3ccccc3Cl)cccc2C(=O)O)c1` [Example 361, 3-[(2-Chlorophenyl)methoxy]-2-[(3,5-dimethylphenyl)methoxy]benzoic acid] returned a melting point of 122 to 123 °C.

Compound `COc1ccccc1COc1c(OCc2ccccc2Cl)cccc1C(=O)O` [Example 362, 3-[(2-Chlorophenyl)methoxy]-2-[(2-methoxyphenyl)methoxy]benzoic acid] yielded a melting point of 110 to 112 °C.

In turn, `O=C(O)c1cccc(OCc2ccccc2Cl)c1OCc1ccccn1` [Example 363] yielded a melting point of 168 to 170 °C.

As to `O=C(O)c1cccc(OCc2ccccc2Cl)c1OCc1ccncc1` [Example 364], the melting point lay within 157 to 159 °C.

Turning to `O=C(O)c1cccc(OCc2ccccc2Cl)c1OCc1cccnc1` [Example 365], the melting point was 181 to 182 °C.

Compound `O=C(O)c1cccc(OCc2ccccc2Cl)c1OCc1cccnc1Cl` [Example 366, 3-[(2-Chlorophenyl)methoxy]-2-[(2-chloro-3-pyridinyl)methoxy)benzoic acid] displayed a melting point of 183 to 184 °C.

`O=C(O)c1cccc(OCc2ccccc2Cl)c1OCc1cccc[n+]1[O-]` [Example 367, 3-[(2-Chlorophenyl)methoxy]-2-[(1-oxido-2-pyridinyl)methoxy]benzoic acid] displayed a melting point of 189 to 191 °C.

`O=C(O)c1cccc(OCc2ccccc2Cl)c1OCc1cc[n+]([O-])cc1` [Example 369, 3-[(2-Chlorophenyl)methoxy]-2-[(1-oxido-4-pyridinyl)methoxy]benzoic acid] gave a melting point of 186 to 188 °C.

`O=C(O)c1cccc(OCc2ccccc2Cl)c1OCc1ccc[n+]([O-])c1Cl` [Example 370, 3-[(2-Chlorophenyl)methoxy]-2-[(2-chloro-1-oxido-3-pyridinyl)methoxy]benzoic acid] came in with a melting point of 145 to 148 °C.

With `Cn1c(COc2c(OCc3ccccc3Cl)cccc2C(=O)O)nc2ccccc21` [Example 372], the melting point is 179 to 182 °C.

`O=C(O)c1c(Br)ccc(OCc2ccccc2Cl)c1OCc1ccccc1Cl` [Example 373, 6-Bromo-2,3-bis[(2-chlorophenyl)methoxy]benzoic acid] showed a melting point of 156 to 158 °C.

As for `O=C(O)c1c(Br)ccc(OCc2ccccc2)c1OCc1ccccc1` [Example 374, 6-Bromo-2,3-bis(phenylmethoxy)benzoic acid], the melting point was in the range of 164 to 166 °C.

`O=C(Nc1c(OCc2ccccc2)cccc1C(=O)O)c1ccccc1` [Example 375, 2-(Benzoylamino)-3-(phenylmethoxy)benzoic acid] showed a melting point of 167 to 168 °C.

In the case of `O=C(Nc1c(OCc2ccccc2)cccc1C(=O)O)c1ccc(Cl)cc1Cl` [Example 381, 2-[(2,4-Dichlorobenzoyl)amino]-3-(phenylmethoxy)benzoic acid], the melting point lay within 208 to 210 °C.

Take `O=C(Nc1c(OCc2ccccc2)cccc1C(=O)O)c1cc(Cl)cc(Cl)c1` [Example 382, 2-[(3,5-Dichlorobenzoyl)amino]-3-(phenylmethoxy)benzoic acid]: the melting point lay in the range of 202 to 204 °C.

Compound `O=C(Nc1c(OCc2c(Cl)cccc2Cl)cccc1C(=O)O)c1ccccc1` [Example 383] showed a melting point of 145 to 147 °C.

`O=C(Nc1c(OCc2cc(Cl)ccc2Cl)cccc1C(=O)O)c1ccccc1` [Example 384] had a melting point of 187 to 189 °C.

In turn, `O=C(Nc1c(OCc2ccc(Cl)cc2Cl)cccc1C(=O)O)c1ccccc1` [Example 387, 2-(Benzoylamino)-3-[(2,4-dichlorophenyl)methoxy]benzoic acid] returned a melting point of 182 to 184 °C.

Broadly, the melting point is the temperature, or range, at which the solid turns liquid.
